From paper PMC7112772 (Journal of Virological Methods, 2005) come the findings set out here.

The test system of data set [1] is TGEV. The data set can be described thus: microbe, parasite or virus in culture. The note with it: read-out: TGEV EC50. Format: cell-based, strain purdue112 (porcine coronavirus).
Data set [2] relates to SARS-CoV. The note with it: for EC50: read-out: SARS-CoV EC50.
Data set [3] concerns VeroE6-EGFP cells.
Data set [4] concerns LLC-PK1-EGFP cells.
Data set [5] is described as follows: in vitro. The note with it: African monkey.
The nature of data set [6]: in vitro. The note with it: pig.
Data set [7] relates to SARS-CoV. The data set can be described thus: microbe, parasite or virus in culture. The note with it: Severe acute respiratory syndrome coronavirus, 120 h, read-out: SARS-CoV EC50.

Where two headings read alike, the source gives them in different places.

What is called EC50 is the midpoint of the concentration-response curve. Consider dextran sulfate 5000 [DS5000], for which the EC50 in data set [1] and in data set [2] was greater than 100 µM each time. Moreover, the CC50 in data set [3] and in data set [4] was greater than 100 µM in each case.

With `CC1(C)[C@@H](O[C@H]2O[C@H](C(=O)O)[C@@H](O)[C@H](O)[C@H]2O[C@@H]2O[C@H](C(=O)O)[C@@H](O)[C@H](O)[C@H]2O)CC[C@]2(C)[C@H]3C(=O)C=C4[C@@H]5C[C@@](C)(C(=O)O)CC[C@]5(C)CC[C@@]4(C)[C@]3(C)CC[C@@H]12` [Glycirrhizin], the EC50 in data set [1] (Alphacoronavirus 1, 120 h) was greater than 100 µM; in data set [7], greater than 100 µM. In addition, the CC50 in data set [5] and in data set [6] was greater than 100 µM in each case.

With `Cc1cn([C@H]2C[C@H](N=[N+]=[N-])[C@@H](CO)O2)c(=O)[nH]c1=O` [AZT], the EC50 in data set [1] and in data set [2] was greater than 100 µM each time. In addition, the CC50 in data set [3] and in data set [4] was greater than 100 µM throughout.

For `O=C(O)C1=CC(=C(c2ccc(O)c(C(=O)O)c2)c2ccc(O)c(C(=O)O)c2)C=CC1=O` [ATA, aurintricarboxylic acid], the EC50 is greater than 56.9 µM in data set [1] (Alphacoronavirus 1, 120 h) and greater than 9.19 µM in data set [7]. Moreover, in data set [2], the “SI SARS CC50/EC50” value is recorded as less than 1.00. Besides, the CC50 in data set [5] was determined as 9.19 µM; in data set [6], 56.9 µM.

Take Lopinavir/ritonavir: the CC50 in data set [3] and in data set [4] was greater than 100 µM throughout.

For S-Nitroso-N-acetylpenicillamine, the values for the EC50 in data set [1] and in data set [2] were greater than 312 µM and greater than 530 µM, respectively. The “SI SARS CC50/EC50” value in data set [2] was less than 1.00. Also, the CC50 came out at 530 µM in data set [3] and 312 µM in data set [4].

Take `NC(=O)c1ncn([C@@H]2O[C@H](CO)[C@@H](O)[C@H]2O)n1` [Ribavirin]: the concentration giving a half-maximal response (EC50) was greater than 20.2 µM in data set [1] (Alphacoronavirus 1, 120 h) and greater than 100 µM in data set [7]. The figures for the CC50 in data set [5] and in data set [6] were greater than 100 µM and 20.2 µM, respectively.
